Experiment [1] deals with Coronary artery smooth muscle cells (CASM3C system). The experiment can be described thus: BioMAP CASM3C system (IL-1β, TNFα, IFNγ). The experiment is classed as cell-based, human.
Experiment [2] relates to Subnormal activation of pyruvate dehydrogenase complex (PDH) primary fibroblasts GM01503 (GM1503A). The experiment can be described thus: Total NAD+ + NADH and NAD+ (NAD/NADH-Glo), PDH fibroblasts GM01503. It counts as cell-based. Particulars: Homo sapiens, Fibroblast, 24h, read-out: Increase in Total NAD+ + NADH. As to the method:
(§1) Primary adherent fibroblasts were cultured in minimum essential medium (MEM) (Gibco, 25030081) supplemented with 2 mM L-Glutamine (Gibco, 25030081), 15% fetal bovine serum (FBS) (Gibco, 26400044) and 1% penicillin/streptomycin (Gibco, 5140122) at 37° C. and 5% CO2. Cells were collected for either passaging or experiment at ˜70-80% confluence. Cells were obtained by trypsinization and seeded in cell culture microplates either white plate (Thermo Fisher Scientific, 152028) for luminescent measurement or black plate (Thermo Fisher Scientific, 165305) for fluorescent based read out for different assays listed below. Cells were obtained by trypsinization and […] were seeded and allowed to adhere for 16-18 hours to have confluency around 70-80% in the cell well with culture media. After 24 hours prior to measurements (37° C., 5% CO2) media was changed to Dulbecco's Modified Eagle Medium (DMEM, Agilent Seahorse cat #103575-100) with the appropriate supplements as stated below.
(§2) Primary fibroblasts assayed were Propionic Acidemia (PA) (GM03590 Coriell Institute for Medical Research, Tsi 6337 Trans-Hit Bio), Methylmalonic Acidemia (MMA) (Tsi 5224 Trans-Hit Bio), Subnormal activation of pyruvate dehydrogenase complex (PDH) (GM01503 Coriell Institute for Medical Research), Very long-chain acyl-CoA dehydrogenase (VLCAD) (GM17475), Leigh Syndrome (LS) (GM03672, GM13411 Coriell Institute for Medical Research), Pyruvate Carboxylase Deficiency (PC) (GM00444 Coriell Institute for Medical Research). 10 μM of Compounds were added for 2 hours in PA, MMA lines and for 24h for the other fibroblast lines.
Assay was performed according to manufacturer instructions (NAD/NADH-Glo Assay Promega, G9072). The NAD/NADH-Glo Assay is a bioluminescent assay for detecting total oxidized and reduced nicotinamide adenine dinucleotides (NAD+ and NADH, respectively) from which ratio of NAD/NADH can be calculated. Briefly, for every assay a 12-point standard curve was prepared ranging from 400 nM to 0.625 nM. Media was removed and replaced with 50 μl of PBS for both assays.
For individual NAD+ and NADH measurement, 50 μl of 1% DTAB (Sigma Cat #D5047) (cell lysis reagent) in 0.2N NaOH was added to the plate and a total 100 μl of lysate was split into two plates with 50 μl each. 25 μl of 0.4N HCl were added to the NAD+ plate and both NAD+ and NADH plate were heated at 60° C. for 15 minutes. The acid and heat treatment destroyed NADH allowing individual NAD+ measurement while heating in basic conditions destroys NAD+ allowed individual NADH measurements. The plates were allowed to come to room temperature for 10 minutes and Trizma base (Sigma, T1699) was added to the NAD+ plate to neutralize the acid and HCl Trizma hydrochloride (Sigma, T2694) was added to the NADH plate. The NADNADH glo reagent was prepared by adding: 625 μl of NAD cycling substrate, 125 μl of reductase, 125 μl of reductase substrate, 125 μl NAD cycling enzyme to total of the 25 ml of NAD GLO reagent. 1:1 ratio of total volume of reagent was added to the individual NAD+, NADH measurement (total 100 μl) and 50 μl for total NAD/NAH measurement. Luminescence was read between 30-60 minutes within the linear range.
(§3) A total dead cell count was performed as described in Example 817 and only alive cells were used for analysis.

The subject of experiment [3] is Venular Endothelial cells (HUVEC) (4H system). As to the kind of experiment: BioMAP 4H system (IL-4 and histamine). It counts as cell-based, human. Particulars: Homo sapiens, HUVEC, 24 h; 10 uM; procedure of Example 826; read-out: % decrease in VEGFRII.
In experiment [4] the test system is Subnormal activation of pyruvate dehydrogenase complex (PDH) primary fibroblasts GM01503. The experiment can be described thus: NADP+/NADPH (NADP/NADPH-Glo), PDH fibroblasts GM01503. It counts as cell-based. Particulars: Homo sapiens, Fibroblast, PDH GM01503 P10, assay condition A (10 mM glucose, 2 mM L-glutamine, 1 mM pyruvate, 10% FBS), 24h, read-out: Increase in Total NADP+ + NADPH. As to the method: as §1, §2
Assay was performed according to manufacturer instructions (NADP+/NADPH-Glo Assay Promega, G9082). Assay required a plate for total measurement of NADP+/NADPH and a plate for individual measurement of NADP+ or NADPH. For every assay a 12-point standard curve is prepared ranging from 400 nM to 0.625 nM. Media is removed and replaced with 50 μl of PBS for both assays.
For individual NADP+/NADPH measurements, 50 μl of 1% DTAB (Sigma, D5047) (cell lysis reagent) in 0.2N NaOH was added to the plates and 100 μl of lysate was split into two plates with 50 μl each from which ratio of NADP/NADPH can be calculated. 25 μl of 0.4N HCl were added to the NADP+ plates and both NADP+ and NADPH plates were heated at 60° C. for 15 minutes. The acid and heat treatment destroyed NADPH allowing individual NADP+ measurements while heating in basic conditions destroys NADP+ allowing individual NADPH measurement. After 15 minutes plates were allowed to come to room temperature and Trizma base (Sigma, T1699) was added to the NADP+ plates to neutralize the acid and HCl Trizma hydrochloride (Sigma, T2694) was added to the NADPH plates. The NADNADPH glo reagent was prepared by adding 125 μl of NAD cycling substrate, 125 μl of reductase, 125 μl of reductase substrate, 125 μl NAD cycling enzyme to a total of the 25 ml of NAD GLO reagent. 1:1 ratio of total volume of reagent was added to the individual NADP+, NADPH measurements (total 100 μl) and 50 μl were added for the total NAD/NADPH measurements. Luminescence was measured for 30-60 minutes within the linear range.
as §3

In experiment [5] the test system is Bronchial epithelial cells co-cultured with dermal fibroblast (BF4T system). The experiment can be described thus: BioMAP BF4T system (TNFα and IL-4). It counts as cell-based, human. Particulars: for activation at 1 µM: Homo sapiens, 24 h, procedure of Example 830, read-out: % increase in VCAM-1.
Experiment [6] relates to Bronchial epithelial cells (BE3C system). The experiment can be described thus: BioMAP BE3C system (IL-1β, TNFα, IFNγ). The settings on record: procedure of Example 831. The experiment is classed as cell-based, human.
In experiment [7] the test system is Peripheral blood mononuclear cells co-cultured with B-cells (BT system). As to the kind of experiment: cells. Particulars: Homo sapiens, 72 h.
Where [8] appears, read: PDH GM1503A P10, assay condition A.

Structures are written as SMILES. Where two headings read alike, the source gives them in different places.

Regarding `CC(=O)OCC(C)(C)[C@@H](OC(C)=O)C(=O)NCCC(=O)NCCSC(C)=O` [Compound 1264, (1R)-3-(acetyloxy)-1-[(2-[[2-(acetylsulfanyl)ethyl]carbamoyl]ethyl)carbamoyl]-2,2-dimethylpropyl acetate], in experiment [1] (1 uM, procedure of Example 832), the “% increase in IL-6” value is recorded as not below 10%. The activation at 10 µM in experiment [2] (setting [8]) and in experiment [4] was not below 10% each time. The inhibition at 10 µM in experiment [3] is not below 10%; in experiment [6] (Homo sapiens, Epithelial cell, 24 h, 10 uM, read-out: % decrease in MMP-1), not below 10%. In addition, the activation at 1 µM in experiment [5] was not below 10%. Further, the “% decrease in tPA” value in experiment [6] (10 uM) is on record as not below 10%.
With `CCC(=O)CC(=O)SCCNC(=O)CCNC(=O)[C@H](O)C(C)(C)CO` [Compound 382, (2R)-2,4-dihydroxy-3,3-dimethyl-N-[2-([2-[(3-oxopentanoyl)sulfanyl]ethyl]carbamoyl)ethyl]butanamide], the activation at 10 µM in experiment [2] (setting [8]) and in experiment [4] was not below 10% in each case.
Turning to `CC(=O)SCCNC(=O)CCNC(=O)[C@H](O)C(C)(C)COC(=O)[C@H](C)N` [Compound 502, (3R)-3-[(2-[[2-(acetylsulfanyl)ethyl]carbamoyl]ethyl)carbamoyl]-3-hydroxy-2,2-dimethylpropyl (2S)-2-aminopropanoate], the inhibition at 10 µM in experiment [1] (Homo sapiens, 24 h, 10 uM, read-out: % decrease in Thrombomodulin) is not below 10%; in experiment [3] it was not below 10%. Also, the activation at 10 µM in experiment [2] (PDH GM1503A P10, assay condition B) is not below 10%; in experiment [4], not below 10%; in experiment [7] (read-out: % increase in sIL-6) it was not below 10%. The “% decrease in IL-1α” value in experiment [5] (10 uM) and in experiment [6] (1 uM) was not below 10% in each case. The activation at 1 µM in experiment [5] was not below 10%. Also, the inhibition at 1 µM in experiment [7] (read-out: % decrease in sIL-17) is not below 20%.

The record behind these values is US20230107216A1, “PANTETHEINE DERIVATIVES AND USES THEREOF” (Comet Therapeutics, Inc., priority 2018, published 2023).
